The values below come from patent publication US12508259B2, “Pharmaceutical formulations containing Nalbuphine” (Humanwell Pharmaceutical US, Inc., priority 2022, dated 2025).

Data set [1] is described as follows: Nalbuphine solubility in different acids (overnight stirring, HPLC). Format: physicochemical. Particulars: approx. 0.5 mmol/mL acid; for solubility: aqueous buffer, thermodynamic from solid, Nalbuphine base Solubility. The protocol: A preliminary assessment of Nalbuphine solubility in different acids was performed. After overnight continuous stirring, the suspensions were centrifuged, and supernatants were filtered through a 0.2 μm filter.

The conditions of data set [2]: commercially available Nalbuphine hydrochloride; cited from earlier work.

Converted amounts (≈) assume the structure as drawn. Structures can show the parent of a compound that is named as a salt. Where two headings read alike, the source gives them in different places.

As for `Oc1ccc2c3c1O[C@H]1[C@@H](O)CC[C@@]4(O)[C@@H](C2)N(CC2CCC2)CC[C@]314` [Nalbuphine base, N-cyclobutylmethyl-14-hydroxydihydronormorphine], the solubility in data set [1] (DL-malic acid solution, in DL-Malic acid) is 630 mM (≈ 225 mg/mL); in data set [1] (acetic acid solution, in Acetic acid) it was 420 mM (≈ 150 mg/mL); in data set [1] (citric acid solution, in Citric acid), over 1000 mM; in data set [1] (hydrochloric acid solution, in Hydrochloride acid) it was 90 mM (≈ 32.2 mg/mL); in data set [1] (lactic acid solution, in Lactic acid), 460 mM (≈ 164 mg/mL); in data set [1] (phosphoric acid solution, in Phosphoric acid), 530 mM (≈ 189 mg/mL). In addition, the solubility in data set [1] (succinic acid solution, in Succinic acid) was 480 mM (≈ 172 mg/mL); in data set [1] (sulfuric acid solution, in Sulfuric acid) it was over 1000 mM; in data set [1] (tartaric acid solution, in Tartaric acid), 930 mM (≈ 332 mg/mL). Further, the “Nalbuphine base Solubility” value was 1070 mM in data set [1] (in Citric acid) and about 1120 mM in data set [1] (in Sulfuric acid).
As for `Oc1ccc2c3c1O[C@H]1[C@@H](O)CC[C@@]4(O)[C@@H](C2)N(CC2CCC2)CC[C@]314` [Nalbuphine hydrochloride], the solubility entry in data set [2] is on record as “approximately 30 mg/mL”.

One may read the solubility as how much of the substance goes into solution per volume.
